According to ChEMBL document CHEMBL1629482, “Synthesis and antitubercular activity of new mefloquine-oxazolidine derivatives” (Eur J Med Chem, 2010):
Converted amounts (≈) assume the structure as drawn.

Tests used:
[1] = system: Mycobacterium tuberculosis; experiment: Antitubercular activity against Mycobacterium tuberculosis ATCC 27294 by Alamar blue assay; assay type: functional
[2] = Cytotoxicity against mouse macrophage assessed as cell viability at 50 uM after 18 hrs by MTT assay; assay type: cell-based; details: mouse macrophages, read-out: Activity
[3] = Cytotoxicity against mouse macrophage assessed as cell viability at 25 uM after 18 hrs by MTT assay; assay type: cell-based; details: mouse macrophages, read-out: Activity
[4] = Cytotoxicity against mouse macrophage assessed as cell viability at 12.5 uM after 18 hrs by MTT assay; assay type: cell-based; details: mouse macrophages, read-out: Activity
[5] = system: Mycobacterium tuberculosis; experiment: Antitubercular activity against Mycobacterium tuberculosis; assay type: functional
Mycobacterium avium = experiment: Antitubercular activity against Mycobacterium avium by Broth micro dilution method; assay type: functional

Compound	MIC [1] [µM]	viability at 18 h, 50 µM [2] [%]	viability at 18 h, 25 µM [3] [%]	viability at 18 h, 12.5 µM [4] [%]	MIC [5] [µM]	MIC (Mycobacterium avium) [µM]
O=[N+]([O-])c1cccc(C2O[C@@H](c3cc(C(F)(F)F)nc4c(C(F)(F)F)cccc34)[C@H]3CCCCN23)c1 (stereo partly specified)	> 250	100	100	100		
FC(F)(F)c1cc([C@H]2O[C@@H](c3ccccc3)N3CCCC[C@@H]23)c2cccc(C(F)(F)F)c2n1	26.8 (≈ 12.5 µg/mL)	95	96	100		
O=[N+]([O-])c1ccccc1C1O[C@@H](c2cc(C(F)(F)F)nc3c(C(F)(F)F)cccc23)[C@H]2CCCCN12 (mixture of isomers)	> 250	100	100	100		
COc1cccc(C2O[C@@H](c3cc(C(F)(F)F)nc4c(C(F)(F)F)cccc34)[C@H]3CCCCN23)c1 (mixture of isomers)	25.2	80	80	100		
COc1ccc(C2O[C@@H](c3cc(C(F)(F)F)nc4c(C(F)(F)F)cccc34)[C@H]3CCCCN23)cc1 (mixture of isomers)	25.2	100	100	100		
O=[N+]([O-])c1ccc(C2O[C@@H](c3cc(C(F)(F)F)nc4c(C(F)(F)F)cccc34)[C@H]3CCCCN23)cc1 (mixture of isomers)	> 250	100	100	100		
FC(F)(F)c1cc([C@@H]2OC(c3ccccc3Cl)N3CCCC[C@H]23)c2cccc(C(F)(F)F)c2n1 (mixture of isomers)	> 250	100	100	100		
FC(F)(F)c1cc([C@@H]2OC(c3cccc(Cl)c3)N3CCCC[C@H]23)c2cccc(C(F)(F)F)c2n1 (mixture of isomers)	> 250	90	100	100		
FC(F)(F)c1cc([C@@H]2OC(c3ccc(Cl)cc3)N3CCCC[C@H]23)c2cccc(C(F)(F)F)c2n1 (mixture of isomers)	> 250	100	100	100		
FC(F)(F)c1cc([C@@H]2OC(c3cccc(Br)c3)N3CCCC[C@H]23)c2cccc(C(F)(F)F)c2n1 (mixture of isomers)	> 250	85	85	100		
FC(F)(F)c1cc([C@@H]2OC(c3ccc(Br)cc3)N3CCCC[C@H]23)c2cccc(C(F)(F)F)c2n1 (mixture of isomers)	> 250	100	100	100		
Fc1ccccc1C1O[C@@H](c2cc(C(F)(F)F)nc3c(C(F)(F)F)cccc23)[C@H]2CCCCN12 (mixture of isomers)	> 250	100	100	100		
Fc1ccc(C2O[C@@H](c3cc(C(F)(F)F)nc4c(C(F)(F)F)cccc34)[C@H]3CCCCN23)cc1 (mixture of isomers)	25.8	82	84	93		
Oc1ccccc1C1O[C@@H](c2cc(C(F)(F)F)nc3c(C(F)(F)F)cccc23)[C@H]2CCCCN12 (mixture of isomers)	25.9	85	85	100		
Oc1ccc(C2O[C@@H](c3cc(C(F)(F)F)nc4c(C(F)(F)F)cccc34)[C@H]3CCCCN23)cc1 (mixture of isomers)	25.9	80	80	100		
COc1ccccc1C1O[C@@H](c2cc(C(F)(F)F)nc3c(C(F)(F)F)cccc23)[C@H]2CCCCN12 (mixture of isomers)	12.6	100	100	100		
CC[C@@H](CO)NCCN[C@@H](CC)CO [ETHAMBUTOL]	15.9 (≈ 3.25 µg/mL)					
OC(c1cc(C(F)(F)F)nc2c(C(F)(F)F)cccc12)C1CCCCN1 (stereo unspecified) [MEFLOQUINE]	33 (≈ 12.5 µg/mL)	76	77	81	21.1 (≈ 7.98 µg/mL)	21.1 (≈ 7.98 µg/mL)
